Data on 6 molecules can be found in publication doi:10.1101/2024.02.23.581731v1 (biorxiv, 2024).

The target of one experiment is T1, gp5-HT3AR (Cavia porcellus, UniProt O70212).
T1 sequence (O70212 20-490): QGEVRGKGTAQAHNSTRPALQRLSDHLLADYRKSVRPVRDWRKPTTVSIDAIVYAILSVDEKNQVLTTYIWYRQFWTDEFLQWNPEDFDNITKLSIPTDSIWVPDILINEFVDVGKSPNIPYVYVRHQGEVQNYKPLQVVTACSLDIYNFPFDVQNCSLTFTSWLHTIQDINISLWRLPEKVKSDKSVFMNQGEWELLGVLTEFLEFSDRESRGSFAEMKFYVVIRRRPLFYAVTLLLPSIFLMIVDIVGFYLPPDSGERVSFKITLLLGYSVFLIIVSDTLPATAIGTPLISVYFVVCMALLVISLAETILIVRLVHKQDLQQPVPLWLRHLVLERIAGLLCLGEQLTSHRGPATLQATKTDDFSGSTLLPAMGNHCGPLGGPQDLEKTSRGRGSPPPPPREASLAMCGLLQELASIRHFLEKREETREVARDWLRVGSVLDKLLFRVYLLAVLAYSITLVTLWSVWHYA
The experiment in a line: FLIPR Blue membrane potential assay, inhibition of 5-HT response. In kind it is cell-based.

In experiment [1] the target is T2, h5-HT3AR (Homo sapiens, UniProt P46098).
T2 sequence (P46098 24-478): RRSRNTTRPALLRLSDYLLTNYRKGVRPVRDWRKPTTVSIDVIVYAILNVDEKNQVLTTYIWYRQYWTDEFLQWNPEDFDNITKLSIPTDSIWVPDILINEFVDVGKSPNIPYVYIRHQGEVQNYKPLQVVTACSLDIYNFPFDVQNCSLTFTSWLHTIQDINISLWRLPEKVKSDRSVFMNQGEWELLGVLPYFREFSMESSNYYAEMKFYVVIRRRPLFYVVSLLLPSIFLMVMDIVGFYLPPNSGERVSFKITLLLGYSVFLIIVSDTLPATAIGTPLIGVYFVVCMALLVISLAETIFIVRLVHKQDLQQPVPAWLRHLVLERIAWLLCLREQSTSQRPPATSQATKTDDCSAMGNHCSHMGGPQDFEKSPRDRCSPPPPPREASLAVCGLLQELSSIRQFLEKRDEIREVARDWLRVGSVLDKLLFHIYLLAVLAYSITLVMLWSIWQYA
The experiment in a line: biochemical.

The target in experiment [2] is T3, h5-HT3AR (Homo sapiens, UniProt P46098, V202I).
T3 sequence (P46098 24-478 V202I): T2 sequence (P46098 24-478) with V179I
The experiment in a line: biochemical.

In experiment [3] the target is T2, h5-HT3AR. The experiment in a line: FLIPR Blue membrane potential assay, activation. In kind it is cell-based. The settings on record: relative to 1 µM VTX.
Experiment [4] addresses T2, h5-HT3AR. The experiment in a line: [3H]-GR65630 displacement, HEK-293 membranes. The experiment is classed as binding.

Residue numbers refer to the chain shown, from its start.

As usually defined, the IC50 is the point on the concentration scale where inhibition reaches its midpoint. A high value points to a need for much substance. Consider `Cc1nccn1CC1CCc2c(c3ccccc3n2C)C1=O` (stereo not shown) [ondansetron], for which the half-inhibitory concentration (IC50) against gp5-HT3AR amounted to 9.81 µM.

By Kd is commonly meant the constant that tells how readily two partners part at equilibrium. Low readings indicate tighter binding, high ones weaker binding. On to `Cc1[nH]cnc1CCC(=O)c1cn(C)c2ccccc12` [[3H]-GR65630], for which the values for the dissociation constant (Kd) at h5-HT3AR [1] and on h5-HT3AR [2] were 0.00082 ± 6e-05 µM and 0.00062 ± 5e-05 µM, respectively.

Turning to `Cc1ccc(Sc2ccccc2N2CCNCC2)cc1` [4j], at h5-HT3AR [3], the “Activity (%) at 1 μM” value amounted to 95 ± 12%.

By Ki is commonly meant the dissociation constant of the complex between target and ligand, obtained from inhibition or displacement. Read a low Ki as a stronger hold on the target. Regarding `Cc1ccc(Sc2ccc(C)cc2N2CCNCC2)c(C)c1` [6b], at h5-HT3AR [4], the Ki was 0.88 µM.

Consider `COc1ccc(Sc2ccccc2N2CCNCC2)c(Cl)c1` [5n], for which, at h5-HT3AR [3], the “Activity (%) at 1 μM” value is 111 ± 14%.

`CN1C2CCCC1CC(NC(=O)c1nn(C)c3ccccc13)C2` (stereo not shown) [granisetron] returned an IC50 against gp5-HT3AR of 1.26 µM.
